Test results taken from US12673050B2, “Compositions and their use for the treatment of A1-antitrypsin deficiency” (Centessa Pharmaceuticals (UK) Limited, priority 2021, dated 2026).

What was measured:
human M A1AT = molecular target: T1, human M A1AT (Homo sapiens, UniProt P01009); assay: A1AT cell secretion assay using HEK-M cells (ELISA); format: cell-based; settings: 10 μM, 48 h
T1 construct: expressed in transfected cells; host or cells: HEK-M cells (HEK-EBNA with M A1AT plasmid)
Experimental: (§1) HEK-M cells, a human embryonic kidney cell line stably transfected with M A1AT, were plated into 96 well plates (3.0×10^5 cells/ml with 200 μl of media/well) overnight at 37° C. in a humidified atmosphere containing 5% CO2. Following incubation cells were washed with 200 μl serum-free media three times and media was replaced with serum-free media containing either vehicle, 10 μM suberanilohydroxamic acid (SAHA), (S)-1-((2-(trifluoromethyl)phenyl)sulfonyl)piperidine-3-carboxylic acid (at 10 μM) or (R)-1-((2-(trifluoromethyl)phenyl)sulfonyl)piperidine-3-carboxylic acid (at 10 μM) in replicates of six for 48 h in a 37° C. incubator in a final volume of 200 μl. At the end of the incubation step the supernatants were removed from the wells, centrifuged at 1000×g at 4° C. for 10 min and were assayed for human A1AT levels by ELISA (Human Serpin A1/α1 antitrypsin duo set ELISA, R& D Systems, DY1268) per manufacturer's instructions.
(§2) Briefly, a 96 well plate was coated with human A1AT capture antibody overnight at room temperature (1:180 dilution from stock, 100 μl final volume/well). The capture antibody was then removed and wells washed three times with 300 μl wash buffer (0.05% Tween in PBS) and then 200 μl reagent diluent (25% Tween 20 in PBS) was incubated in each well for 1 h at room temperature. Diluted samples, standards (125, 250, 500, 1000, 2000, 4000 and 8000 pg/ml A1AT) or blanks were then added to each well in duplicate and the plates were covered with a plate sealer and left at room temperature for 2 h. […] After which, 50 μl stop solution (2M H2SO4) was added and optical density (OD) of each well was read at 450 nm with 570 nm blank subtracted from each well using a microplate reader. A 4 parameter logistic curve was constructed using GraphPad Prism 7 and A1AT concentrations were determined in each sample by interpolation from a standard curve and multiplying by the appropriate dilution factor.
(§3) The amount of human A1AT secreted from transfected HEK-EBNA cells into the media was measured by ELISA. […]

human Siiyama A1AT = molecular target: T2, human Siiyama A1AT (Homo sapiens, UniProt P01009, S77F); assay: A1AT cell secretion assay using HEK-Siiyama cells (ELISA); format: cell-based; settings: 10 μM, 48 h
T2 construct: expressed in transfected cells; host or cells: HEK-Siiyama cells (HEK-EBNA with Siiyama A1AT plasmid)
Experimental: as §1, with “HEK-Siiyama” for “HEK-M”, “the Siiyama A1AT gene,” for “M A1AT,”, “containing” for “containing either”, “(at 1 or” for “(at”, “eight” for “six”, “A1/α1-antitrypsin” for “A1/α1 antitrypsin”
as §2, with “(0.05% Tween 20 in PBS)” for “(0.05% Tween in PBS)”
as §3

T1 sequence (P01009 25-418): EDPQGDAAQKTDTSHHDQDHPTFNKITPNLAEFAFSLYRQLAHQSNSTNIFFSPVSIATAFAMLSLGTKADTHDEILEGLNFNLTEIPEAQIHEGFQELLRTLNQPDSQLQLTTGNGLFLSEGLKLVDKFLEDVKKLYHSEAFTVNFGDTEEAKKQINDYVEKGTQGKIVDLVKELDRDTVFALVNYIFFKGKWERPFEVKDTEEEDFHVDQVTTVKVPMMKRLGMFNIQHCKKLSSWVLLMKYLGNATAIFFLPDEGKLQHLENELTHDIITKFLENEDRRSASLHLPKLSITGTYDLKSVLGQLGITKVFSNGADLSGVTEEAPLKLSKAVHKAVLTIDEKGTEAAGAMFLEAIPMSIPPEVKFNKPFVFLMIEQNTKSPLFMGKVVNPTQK
T2 sequence (P01009 25-418 S77F): as the sequence (P01009 25-418) above, with S53F counted along it

In the case of `O=C(CCCCCCC(=O)Nc1ccccc1)NO` [SAHA, suberanilohydroxamic acid, reference compound], the “secretion of human M A1AT into cell supernatant” value (human M A1AT) was “stimulates an increase in M A1AT secretion” and the “secretion of human Siiyama A1AT into cell supernatant (positive control)” value (human Siiyama A1AT) was “stimulates an increase in Siiyama A1AT secretion”.
